Measurements reported in PMC4581723, “Evaluation of In Vitro Activity of the Class I PI3K Inhibitor Buparlisib (BKM120) in Pediatric Bone and Soft Tissue Sarcomas” (PLoS ONE, 2015).
Like-named read-outs stand apart in the source and are kept apart here.

Experiments:
A204 = assay: Cell viability assay (MTT), 72 h; type: cell-based; conditions: Homo sapiens, A204 (RMS), PIK3CA WT, read-out: Buparlisib cell viability IC50
SKES = assay: Cell viability assay (MTT), 72 h; type: cell-based; conditions: SKES (ES), PIK3CA WT, read-out: Buparlisib cell viability IC50
OS 187 = assay: Cell viability assay (MTT), 72 h; type: cell-based; conditions: OS 187 (OS), read-out: Buparlisib cell viability IC50
SJCRH30 = assay: Cell viability assay (MTT), 72 h; type: cell-based; conditions: SJCRH30 (RMS), PIK3CA WT, read-out: Buparlisib cell viability IC50
KHOS 312H = assay: Cell viability assay (MTT), 72 h; type: cell-based; conditions: KHOS 312H (OS), read-out: Buparlisib cell viability IC50
phospho-p70 S6K (T389) = assay: Immunoblot of signaling downstream of mTORC1; type: cell-based; conditions: increasing doses; one hour; compared with 4E-BP1
Protocol: (§1) Cells were incubated for approximately one hour on ice in lysis buffer (50 mM Tris pH 7.6, 0.5% NP-40, 10% glycerol, 30 mM NaCl, 1 mM EDTA) supplemented with Complete Mini EDTA-free protease inhibitor cocktail (Roche), 1 mM Na3VO4, and 1 mM NaF. […] Secondary antibodies conjugated to HRP were sheep anti-mouse IgG from GE Healthcare and goat anti-rabbit IgG from Santa Cruz Biotechnology. Secondary antibodies conjugated to infrared dyes were IRDye 800CW goat anti-mouse IgG and IRDye 680RD goat anti-rabbit IgG from LI-COR Biosciences. Fluorescent westerns were imaged using the Odyssey Infrared Imaging System (LI-COR Biosciences). Signals were quantified by measuring the integrated intensity values of each band using Odyssey software (LI-COR Biosciences).
(§2) We next evaluated the ability of buparlisib to inhibit cellular signaling downstream of PI3K. Increasing doses were added to cells and phosphorylation of signaling molecules was examined by immunoblot after one hour of treatment (Fig 2A). […] Phospho-Akt levels were normalized to levels of total Akt and fit to dose-response curves to calculate the half maximal inhibitory concentration (IC50) (Fig 2B).
(§3) Each data point represents the average of at least three independent experiments.

phospho-4E-BP1 (T37/46) = assay: Immunoblot of signaling downstream of mTORC1; type: cell-based
Protocol: as §1, §2, §3

[1] = test system: pediatric sarcoma cell lines; assay: Cell viability assay (MTT), panel of sarcoma cell lines; type: cell-based
KHOS 240S = assay: Cell viability assay (MTT), 72 h; type: cell-based; conditions: KHOS 240S (OS), read-out: Buparlisib cell viability IC50
TC-248 = assay: Cell viability assay (MTT), 72 h; type: cell-based; conditions: TC-248 (ES), PIK3CA WT, read-out: Buparlisib cell viability IC50
phospho-Akt (S473) [2] = assay: Immunoblot (quantitative) of Akt phosphorylation; type: cell-based
TC-32 = assay: Cell viability assay (MTT), 72 h; type: cell-based; conditions: Homo sapiens, TC-32 (ES), PIK3CA WT, read-out: Buparlisib cell viability IC50
SK-N-MC = assay: Cell viability assay (MTT), 72 h; type: cell-based; conditions: Homo sapiens, SK-N-MC (ES), PIK3CA WT, read-out: Buparlisib cell viability IC50
phospho-Akt (S473) [3] = assay: Immunoblot (quantitative) of Akt phosphorylation; type: cell-based; conditions: for IC50: 1 h treatment
Protocol: as §1, §2, §3

RDES = assay: Cell viability assay (MTT), 72 h; type: cell-based; conditions: RD-ES, PIK3CA WT, read-out: Buparlisib cell viability IC50
HOS = assay: Cell viability assay (MTT), 72 h; type: cell-based; conditions: Homo sapiens, HOS (OS), PIK3CA WT, read-out: Buparlisib cell viability IC50
RD = assay: Cell viability assay (MTT), 72 h; type: cell-based; conditions: Homo sapiens, RD (RMS), PIK3CA WT, read-out: Buparlisib cell viability IC50
MCF-7 = assay: Cell viability assay (MTT), 72 h; conditions: read-out: Buparlisib cell viability IC50, MCF-7 (breast), PIK3CA E545K
Protocol: Cells were seeded in 96-well plates and drugs were added after overnight incubation, with each treatment condition performed in triplicate. After drug treatment, 10 μl of 5 mg/ml MTT (3-(4,5-dimethylthiazolyl-2)-2, 5-diphenyltetrazolium bromide) in PBS was added to cells and allowed to incubate for 2–4 hours at 37°C. […] Plate absorbance was read at 595 nm using a Bio-rad microplate reader. Percent viability was calculated by normalizing absorbance values to those from cells grown in media without drug after background subtraction. IC50 values were calculated by fitting dose-response curves to a four-parameter, variable slope sigmoid dose-response model (Prism Software, GraphPad).

Structure (SMILES): Nc1cc(C(F)(F)F)c(-c2cc(N3CCOCC3)nc(N3CCOCC3)n2)cn1 [Buparlisib]
- IC50 (A204): 0.526 µM
- IC50 (SKES): 0.822 µM
- IC50 (OS 187): 1.54 µM
- IC50 (SJCRH30): 1 µM
- IC50 (KHOS 312H): 1.59 µM
- Phosphorylation of S6K (phospho-p70 S6K (T389)): more potently inhibited
- Inhibition of phospho-4E-BP1 (phospho-4E-BP1 (T37/46); increasing doses, one hour): only observed at high buparlisib concentrations
- phosphorylation of 4E-BP1 (phospho-4E-BP1 (T37/46); treatment with both buparlisib and rapamycin, A4573 cells): more potently suppressed
- IC50 ([1]; ES and RMS cell lines in general, 72 h, read-out: cell viability IC50): ~1 µM
- concentrations at which synergistic effects were observed ([1]; buparlisib concentration in combination therapy): under 1 μM
- combination effect on cell viability ([1]; combined with rapamycin, four cell lines (TC-32, A673, RD, A4573), 72 h): Synergy
- combination effect on cell viability ([1]; combined with trametinib, cell lines with (A673, RD) and without (TC-32, A4573) MAPK pathway mutations, 72 h): Synergistic effects were only observed in cell lines that contained MAPK pathway mutations
- combination effect on cell viability ([1]; in combination with NVP-AEW541, ES and RMS cell lines, 72 h): Synergy
- combination effect on cell viability ([1]; in combination with NVP-AEW541, OS cell lines (MNNG), 72 h): additive effects
- IC50 ([1]; median over sarcoma cell lines, 72 h, read-out: median IC50 value, cellular proliferation): 1.1 µM
- combination effect on cell viability ([1]; sequential treatment doxorubicin (4 h) then buparlisib (72 h), ratio 20:3, ES and OS cell lines): additive
- IC50 (KHOS 240S): 1.17 µM
- IC50 (TC-248): 0.816 µM
- phospho-Akt levels compared to each drug alone (phospho-Akt (S473) [2]; combination with NVP-AEW541, A4573 cells, one hour of treatment): reduced phospho-Akt levels
- time to maximum inhibition of Akt (phospho-Akt (S473) [2]; time course 5 min to 24 h, 1 μM (3 μM in A4573)): approximately one
- IC50 (TC-32): 0.972 µM
- IC50 (SK-N-MC): 0.899 µM
- IC50 (phospho-Akt (S473) [3]; 1 h, 6647 (ES), phospho-Akt S473 normalized to total Akt, read-out: Buparlisib Akt phosphorylation IC50): 0.568 µM
- IC50 (phospho-Akt (S473) [3]; 1 h, HOS (OS), phospho-Akt S473 normalized to total Akt, read-out: Buparlisib Akt phosphorylation IC50): 0.222 µM
- IC50 (phospho-Akt (S473) [3]; 1 h, KHOS (OS), phospho-Akt S473 normalized to total Akt, read-out: Buparlisib Akt phosphorylation IC50): 0.109 µM
- IC50 (phospho-Akt (S473) [3]; 1 h, MNNG (OS), phospho-Akt S473 normalized to total Akt, read-out: Buparlisib Akt phosphorylation IC50): 0.296 µM
- IC50 (phospho-Akt (S473) [3]; 1 h, RD (RMS), phospho-Akt S473 normalized to total Akt, read-out: Buparlisib Akt phosphorylation IC50): 0.167 µM
- IC50 (phospho-Akt (S473) [3]; 1 h, SJCRH30 (RMS), phospho-Akt S473 normalized to total Akt, read-out: Buparlisib Akt phosphorylation IC50): 0.2 µM
- IC50 (phospho-Akt (S473) [3]; 1 h, TC-174 (ES), phospho-Akt S473 normalized to total Akt, read-out: Buparlisib Akt phosphorylation IC50): 0.313 µM
- IC50 (phospho-Akt (S473) [3]; 1 h, range over the cell lines tested, largest values in cell lines that lack PTEN expression, read-out: phospho-Akt (S473) IC50, range over cell lines): 0.064 to 0.916 µM
- IC50 (phospho-Akt (S473) [3]; A4573, 1 h, A4573 (ES), phospho-Akt S473 normalized to total Akt, read-out: Buparlisib Akt phosphorylation IC50): 0.916 µM
- IC50 (phospho-Akt (S473) [3]; Homo sapiens, A204, 1 h, A204 (RMS), phospho-Akt S473 normalized to total Akt, read-out: Buparlisib Akt phosphorylation IC50): 0.0637 µM
- IC50 (phospho-Akt (S473) [3]; Homo sapiens, MCF7, 1 h, MCF-7 (breast), PIK3CA E545K, phospho-Akt S473 normalized to total Akt, read-out: Buparlisib Akt phosphorylation IC50): 0.251 µM
- IC50 (phospho-Akt (S473) [3]; Homo sapiens, TC-32, 1 h, TC-32 (ES), phospho-Akt S473 normalized to total Akt, read-out: Buparlisib Akt phosphorylation IC50): 0.28 µM
- IC50 (phospho-Akt (S473) [3]; KHOS-240S, 1 h, KHOS 240S (OS), phospho-Akt S473 normalized to total Akt, read-out: Buparlisib Akt phosphorylation IC50): 0.198 µM
- rapamycin-mediated Akt activation (phospho-Akt (S473) [3]; buparlisib added to rapamycin, A4573 cells): reduced rapamycin-mediated Akt activation
- Phosphorylation of Akt at serine 473 and threonine 308 (phospho-Akt (S473) [3]; increasing doses, one hour of treatment, TC-32, KHOS, RD): inhibited
- IC50 (RDES): 1.12 µM
- IC50 (HOS): 1.84 µM
- IC50 (RD): 1.07 µM
- IC50 (MCF-7; Homo sapiens, MCF7, 72 h): 0.173 µM
- IC50 (MCF-7): 0.173 µM
